Assay results: ChEMBL document CHEMBL1201862, “PubChem BioAssay data set” (2004)
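Assay format: 96-well plates, 48-hour exposure. GI50 is the concentration that inhibits growth by half.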 Active and inactive are the calls of the source. Rule as the data show it: active = GI50 up to about 1.1 µM and inactive = higher. Where a SMILES comes first, the peptide text is derived from it. The star is where a group is joined. Boc = CC(C)(C)OC(=O)*

What was measured:
Assay in all cases: DTP human tumour cell line panel, 48 h
U-251 = tested on: U-251
PC-3 = tested on: PC-3
OVCAR-5 = tested on: OVCAR-5
NCI-H460 = tested on: NCI-H460
MDA-N = tested on: MDA-N
MDA-MB-231 = tested on: MDA-MB-231
BT-549 = tested on: BT-549
SNB-19 = tested on: SNB-19
SF-539 = tested on: SF-539
SF-295 = tested on: SF-295
CAKI-1 = tested on: CAKI-1
SW-620 = tested on: SW-620
Malme-3M = tested on: Malme-3M
HL-60 = tested on: HL-60
LOX IMVI = tested on: LOX IMVI

Row | SMILES | GI50 (U-251) | GI50 (PC-3) | GI50 (OVCAR-5) | GI50 (NCI-H460) | GI50 (MDA-N) | GI50 (MDA-MB-231) | GI50 (BT-549) | GI50 (SNB-19) | GI50 (SF-539) | GI50 (SF-295) | GI50 (CAKI-1) | GI50 (SW-620) | GI50 (Malme-3M) | GI50 (HL-60) | GI50 (LOX IMVI)
1 | O=C1C(Cl)=C(Sc2nnc3c4ccccc4c4ccccc4c3n2)C(=O)c2ccccc21 | 13.3 µM (inactive) | 19 µM (inactive) | 23.2 µM (inactive) | 17.8 µM (inactive) | 1.92 µM (inactive) | 3.51 µM (inactive) | 17.8 µM (inactive) | 18.7 µM (inactive) | 16.1 µM (inactive) | 10.8 µM (inactive) | 17 µM (inactive) | 23.1 µM (inactive) | 3.26 µM (inactive) | 2.74 µM (inactive) | 4.57 µM (inactive)
2 | CCc1c(O)c2c(c(O)c1C(C)=O)C(=O)c1c(cc(O)c(C(=O)O)c1C(=O)O)C2=O | > 100 µM (inactive) | > 100 µM (inactive) | > 100 µM (inactive) | > 100 µM (inactive) | > 100 µM (inactive) | > 100 µM (inactive) | > 100 µM (inactive) | > 100 µM (inactive) | > 100 µM (inactive) | > 100 µM (inactive) | > 100 µM (inactive) | > 100 µM (inactive) | > 100 µM (inactive) | – | > 100 µM (inactive)
3 | Cc1cnc(Cl)nc1C(C#N)c1nc2ccccc2s1 (stereo not drawn) | 20.1 µM (inactive) | – | 25.8 µM (inactive) | 30.7 µM (inactive) | 15 µM (inactive) | 40.9 µM (inactive) | 12.4 µM (inactive) | 34.2 µM (inactive) | 25.8 µM (inactive) | 19.8 µM (inactive) | 22.4 µM (inactive) | 33.6 µM (inactive) | 9.31 µM (inactive) | – | 18.8 µM (inactive)
4 | O=[N+]([O-])c1ccc(/C=N/Nc2nc3ccccc3[nH]2)o1 | 34 µM (inactive) | 15.3 µM (inactive) | 23.1 µM (inactive) | 17.5 µM (inactive) | 7.57 µM (inactive) | 32.4 µM (inactive) | 15 µM (inactive) | 26.5 µM (inactive) | 4.09 µM (inactive) | 16 µM (inactive) | 15.1 µM (inactive) | 10.8 µM (inactive) | 13.8 µM (inactive) | 1.31 µM (inactive) | 13.9 µM (inactive)
5 | O=[N+]([O-])c1ccc(Cl)cc1N/N=C/c1ccnc2ccccc12 | 17.5 µM (inactive) | > 100 µM (inactive) | – | > 100 µM (inactive) | > 100 µM (inactive) | > 100 µM (inactive) | > 100 µM (inactive) | > 100 µM (inactive) | 21.9 µM (inactive) | > 100 µM (inactive) | > 100 µM (inactive) | > 100 µM (inactive) | – | > 100 µM (inactive) | –
6 | COc1ccc2cc(C(=O)O)ccc2c1OC | > 100 µM (inactive) | > 100 µM (inactive) | > 100 µM (inactive) | > 100 µM (inactive) | > 100 µM (inactive) | > 100 µM (inactive) | > 100 µM (inactive) | > 100 µM (inactive) | > 100 µM (inactive) | > 100 µM (inactive) | > 100 µM (inactive) | > 100 µM (inactive) | > 100 µM (inactive) | > 100 µM (inactive) | –
7 | COc1cc(S(=O)(=O)Nc2ccc(-c3csc(N4C(=O)C(C)SC4c4cccs4)n3)cc2)ccc1Cl (stereo not drawn) | – | 15.7 µM (inactive) | > 100 µM (inactive) | – | – | – | 34 µM (inactive) | – | 48.9 µM (inactive) | > 100 µM (inactive) | 50.5 µM (inactive) | 34.4 µM (inactive) | 60.5 µM (inactive) | 18.7 µM (inactive) | 5.27 µM (inactive)
8 | CCOC(=O)Oc1cc2ccsc2c2c1c1ccccc1n2C(=O)OCC | 45 µM (inactive) | 38.2 µM (inactive) | > 100 µM (inactive) | 30.9 µM (inactive) | 31 µM (inactive) | 35.6 µM (inactive) | 59 µM (inactive) | – | 36.4 µM (inactive) | 36.1 µM (inactive) | 58.2 µM (inactive) | 94.8 µM (inactive) | 33.7 µM (inactive) | – | > 100 µM (inactive)
9 | CC1C2CC(CC2O)C1(C)C (stereo not drawn) | > 100 µM (inactive) | > 100 µM (inactive) | > 100 µM (inactive) | > 100 µM (inactive) | > 100 µM (inactive) | > 100 µM (inactive) | > 100 µM (inactive) | > 100 µM (inactive) | > 100 µM (inactive) | > 100 µM (inactive) | > 100 µM (inactive) | > 100 µM (inactive) | > 100 µM (inactive) | > 100 µM (inactive) | –
10 | COc1cc(O)c2c(=O)cc(C3(O)C=CC(=O)C=C3)oc2c1 | < 0.0405 µM (active) | 0.131 µM (active) | – | 0.675 µM (active) | – | 0.327 µM (active) | 0.363 µM (active) | 6.93 µM (inactive) | < 0.01 µM (active) | 0.631 µM (active) | < 0.0476 µM (active) | < 0.0417 µM (active) | < 0.01 µM (active) | < 0.01 µM (active) | 0.041 µM (active)
11 | NC(C/C=C/P(=O)(O)O)C(=O)O (stereo not drawn) | > 100 µM (inactive) | > 100 µM (inactive) | > 100 µM (inactive) | > 100 µM (inactive) | > 100 µM (inactive) | > 100 µM (inactive) | – | > 100 µM (inactive) | > 100 µM (inactive) | > 100 µM (inactive) | 2 µM (inactive) | > 100 µM (inactive) | – | > 100 µM (inactive) | > 100 µM (inactive)
12 | COc1ccc(-c2cc(O)c3ccc(C)nc3n2)cc1 | – | – | > 100 µM (inactive) | – | – | > 100 µM (inactive) | > 100 µM (inactive) | > 100 µM (inactive) | > 100 µM (inactive) | – | > 100 µM (inactive) | > 100 µM (inactive) | > 100 µM (inactive) | – | > 100 µM (inactive)
13 | Nc1nc(O)c2ncn(C3C=CC(CO)O3)c2n1 (stereo not drawn) | > 100 µM (inactive) | > 100 µM (inactive) | > 100 µM (inactive) | > 100 µM (inactive) | > 100 µM (inactive) | > 100 µM (inactive) | > 100 µM (inactive) | > 100 µM (inactive) | – | > 100 µM (inactive) | > 100 µM (inactive) | > 100 µM (inactive) | > 100 µM (inactive) | – | > 100 µM (inactive)
14 | O=C(NC1CCN(Cc2ccccc2)CC1)c1cccc(I)c1 | 23 µM (inactive) | 18.5 µM (inactive) | 30.3 µM (inactive) | 22 µM (inactive) | – | 17 µM (inactive) | 42.5 µM (inactive) | 35 µM (inactive) | 22.8 µM (inactive) | 18.3 µM (inactive) | 19.7 µM (inactive) | 17.1 µM (inactive) | 17.1 µM (inactive) | 34.4 µM (inactive) | 19.6 µM (inactive)
15 | CC(C)(C)OC(=O)NC(Cc1ccccc1)C(=O)N1CCCC1C(N)=O (stereo not drawn) (Boc-Phe-Pro-NH2; configuration not given here) | – | > 100 µM (inactive) | – | > 100 µM (inactive) | > 100 µM (inactive) | > 100 µM (inactive) | – | > 100 µM (inactive) | – | > 100 µM (inactive) | 9.29 µM (inactive) | > 100 µM (inactive) | > 100 µM (inactive) | > 100 µM (inactive) | > 100 µM (inactive)
